Results on 19 molecules are retold here after BindingDB's records for patent US20250304537 (Repare Therapeutics, 2025).

Where only a bound is given, the exact number is not on record here.

The assay has as its target T1, Membrane-associated tyrosine- and threonine-specific cdc2-inhibitory kinase (Homo sapiens, UniProt Q99640).
T1 sequence (Q99640 whole entry): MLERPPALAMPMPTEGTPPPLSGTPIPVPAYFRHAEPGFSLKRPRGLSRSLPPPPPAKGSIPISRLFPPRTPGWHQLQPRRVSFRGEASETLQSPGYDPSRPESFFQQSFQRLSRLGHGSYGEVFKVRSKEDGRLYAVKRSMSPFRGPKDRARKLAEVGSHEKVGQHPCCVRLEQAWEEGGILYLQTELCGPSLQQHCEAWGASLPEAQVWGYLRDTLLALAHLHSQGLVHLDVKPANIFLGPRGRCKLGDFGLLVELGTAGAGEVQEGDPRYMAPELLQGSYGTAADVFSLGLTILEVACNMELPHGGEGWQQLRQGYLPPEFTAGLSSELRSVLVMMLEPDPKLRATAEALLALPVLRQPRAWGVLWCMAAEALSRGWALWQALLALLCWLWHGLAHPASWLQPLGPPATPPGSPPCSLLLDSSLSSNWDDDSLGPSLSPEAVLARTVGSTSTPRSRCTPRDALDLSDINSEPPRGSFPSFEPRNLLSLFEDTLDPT
The assay is described as follows: Enzymatic Assay. As for the experimental part: Detection of Myt1 kinase activity utilized a recombinant human Myt1 kinase assay measuring the hydrolysis of ATP using a commercially available ADP-Glo Assay (ADP-Glo™ Kinase Assay from Promega, 10 000 assays, #V9102). Briefly, 5 μL recombinant human Myt1 (full length PKMYT1 recombinant human protein expressed in insect cells from Thermo Fisher #A33387; ˜80% purity) was prepared in reaction buffer (70 mM HEPES, 3 mM MgCl2, 3 mM MnCl2, 50 μg/ml PEG 20000, 3 μM Na-orthovanadate, 1.2 mM DTT) and added to 384 well white polystyrene, flat bottom well, non-treated, microplate (Corning #3572). After this, 5 μL of compounds (diluted in reaction buffer to 0.5% DMSO) was added to the microplate and the plate was spun briefly and incubated at 22° C. for 15 minutes. Ultra-Pure Adenosine Triphosphate (ATP) solution (ADP-Glo kit from Promega) was diluted in reaction buffer and 5 μL was added to the microplate, spun down briefly and incubated for 60 minutes at 30° C. The final Myt1 enzyme concentration was 18 nM and the final ATP concentration was 10 μM. After the 60-minute incubation, 15 μL of ADP-Glo reagent was added and the plate was spun briefly and sealed and incubated in the dark for 40 minutes at 22° C. Following this, 30 μL of kinase detection reagent was added per well and the plate was spun briefly, sealed and incubated for 45-60 minutes at 22° C. in the dark. Luminescence was read using the Envision (250 ms integration). The IC50 and the % max inhibition were calculated for each inhibitor compound tested.
In general, IC50 refers to the concentration that inhibits the measured activity by half. A higher IC50 goes with a need for much substance. As for `Cc1ccc(O)cc1-c1nc(C2CCOCC2)nc(C(N)=O)c1N` [US20250304537, Compound 44], the IC50 came to 3180 nM.

Consider `NC(=O)c1nc(-c2ccnnc2)cc(-c2cccc3[nH]ncc23)c1N` [US20250304537, Compound 69], for which the IC50 was determined as 131 nM.

For `Cc1ccc(O)c(C)c1-c1nc(-c2ccnnc2)cc(C(N)=O)c1N` [US20250304537, Compound 77], half-maximal inhibition (IC50) required 27 nM.

For `Cc1ccc2[nH]ncc2c1-c1nc(-c2ccnnc2)cc(C(N)=O)c1N` [US20250304537, Compound 120], half-maximal inhibition (IC50) was put at 329 nM.

In turn, `Cc1ccc2[nH]ncc2c1-c1nc(-c2ccc3[nH]ncc3c2)nc(C(N)=O)c1N` [US20250304537, Compound 130] returned an IC50 of 66 nM. Compared with the last molecule, the IC50 is about 5-fold lower.

Regarding `Cc1ccc2[nH]ncc2c1-c1nc(-c2cccc(N3CCN(C)CC3)c2)nc(C(N)=O)c1N` [US20250304537, Compound 132], 37 nM corresponded to half-maximal inhibition (IC50).

Consider `Cc1ccc2[nH]ncc2c1-c1nc(-c2ccc(C#N)cc2)nc(C(N)=O)c1N` [US20250304537, Compound 133], for which the 50% inhibitory concentration (IC50) turned out to be 39 nM. This IC50 and that of the molecule before are within 1.5-fold of each other.

On to `Cc1ccc2[nH]ncc2c1-c1nc(-c2ccc(N3CCN(C)CC3)cc2)nc(C(N)=O)c1N` [US20250304537, Compound 134], for which the IC50 is 142 nM.

On to `COc1cc(-c2nc(C(N)=O)c(N)c(-c3c(C)ccc4[nH]ncc34)n2)ccn1` [US20250304537, Compound 135], for which the IC50 amounted to 22 nM.

`Cc1cc(-c2nc(C(N)=O)c(N)c(-c3c(C)ccc4[nH]ncc34)n2)ccn1` [US20250304537, Compound 136] gave an IC50 of 25 nM. This IC50 and that of the molecule before are within 1.5-fold of each other.

Consider `Cc1ccc2[nH]ncc2c1-c1cc(-c2ccnc(OCC(F)(F)F)n2)nc(C(N)=O)c1N` [US20250304537, Compound 165], for which half-maximal inhibition (IC50) required 586 nM.

In turn, `Cc1ccc2[nH]ncc2c1-c1cc(-c2ccnc(OCc3ccco3)n2)nc(C(N)=O)c1N` [US20250304537, Compound 213] came in with an IC50 of 7 nM.

For `CC(=O)N1CCN(c2nccc(-c3cc(-c4c(C)ccc5[nH]ncc45)c(N)c(C(N)=O)n3)n2)CC1` [US20250304537, Compound 215], the IC50 is 7 nM.

For the molecule `CCc1ccc2[nH]ncc2c1-c1nc(-c2cccnc2)nc(C(N)=O)c1N` [US20250304537, Compound 222], the IC50 was greater than 2000 nM.

`Cc1ccc2[nH]ncc2c1-c1cc(-c2cccc(-c3ccccn3)n2)nc(C(N)=O)c1N` [US20250304537, Compound 236] yielded an IC50 of 46 nM.

`Cc1ccc2[nH]ncc2c1-c1cc(-c2ccnc(OCc3nccn3C)n2)nc(C(N)=O)c1N` [US20250304537, Compound 301] came in with an IC50 of 4 nM.

As to `Cc1ccc2[nH]ncc2c1-c1cc(-c2ccnc(OCC3(C#N)CC3)n2)nc(C(N)=O)c1N` [US20250304537, Compound 324], the IC50 stood at 10 nM. This IC50 is about 2.5-fold higher than that of the molecule before.

As to `Cc1ccc2[nH]ncc2c1-c1cc(-c2ccnc(N[C@H]3CCOC[C@@H]3O)n2)nc(C(N)=O)c1N` [US20250304537, Compound 368], the IC50 is 15 nM.

Molecule `Cc1ccc2[nH]ncc2c1-c1nc(-c2cccnc2O)nc(C(N)=O)c1N` [US20250304537, Compound 598] came in with an IC50 of 27 nM.
